Calls of active or inactive are those of the source.
Experiments:
Mus musculus [1] = experiment: Antiarthritic activity against collagen-II induced rheumatoid arthritis DBA-1 mouse model assessed as reduction in clinical score at 100 mg/kg administered for 14 days on day 60 to day 74 post-immunization; type: functional, organism-based; settings: time 14.0 day
Mus musculus [2] = experiment: Antiarthritic activity against collagen-II induced rheumatoid arthritis DBA-1 mouse model assessed as reduction in serum TNF-alpha level at 100 mg/kg administered for 14 days on day 60 to day 74 post-immunization by ELISA; type: functional, organism-based; settings: time 14.0 day
Mus musculus [3] = experiment: Antiarthritic activity against collagen-II induced rheumatoid arthritis DBA-1 mouse model assessed as reduction in serum IL-1beta level at 100 mg/kg administered for 14 days on day 60 to day 74 post-immunization by ELISA; type: functional, organism-based; settings: time 14.0 day
Mus musculus [4] = experiment: Antiarthritic activity against collagen-II induced rheumatoid arthritis DBA-1 mouse model assessed as reduction in serum IL-6 level at 100 mg/kg administered for 14 days on day 60 to day 74 post-immunization by ELISA; type: functional, organism-based; settings: time 14.0 day
Mus musculus [5] = experiment: Antiarthritic activity against collagen-II induced rheumatoid arthritis DBA-1 mouse model assessed as reduction in blood TNF-alpha mRNA level at 100 mg/kg administered for 14 days on day 60 to day 74 post-immunization by RT-qPCR assay; type: functional, organism-based; settings: time 14.0 day
Mus musculus [6] = experiment: Antiarthritic activity against collagen-II induced rheumatoid arthritis DBA-1 mouse model assessed as reduction in blood IL-1beta mRNA level at 100 mg/kg administered for 14 days on day 60 to day 74 post-immunization by RT-qPCR assay; type: functional, organism-based; settings: time 14.0 day
Mus musculus [7] = experiment: Antiarthritic activity against collagen-II induced rheumatoid arthritis DBA-1 mouse model assessed as reduction in blood IL-6 mRNA level at 100 mg/kg administered for 14 days on day 60 to day 74 post-immunization by RT-qPCR assay; type: functional, organism-based; settings: time 14.0 day
Mus musculus [8] = experiment: Antiarthritic activity against collagen-II induced rheumatoid arthritis DBA-1 mouse model assessed as reduction in TNF-alpha protein level at 100 mg/kg administered for 14 days on day 60 to day 74 post-immunization by immunohistochemistry analysis; type: functional, organism-based; settings: time 14.0 day
Mus musculus [9] = experiment: Antiarthritic activity against collagen-II induced rheumatoid arthritis DBA-1 mouse model assessed as reduction in IL-1beta protein level at 100 mg/kg administered for 14 days on day 60 to day 74 post-immunization by immunohistochemistry analysis; type: functional, organism-based; settings: time 14.0 day
Mus musculus [10] = experiment: Antiarthritic activity against collagen-II induced rheumatoid arthritis DBA-1 mouse blood CD4+ T cells assessed as reduction in Th1 cells differentiation at 100 mg/kg administered for 14 days on day 60 to day 74 post-immunization by flow cytometry analysis; type: functional, organism-based; settings: T-cell, time 14.0 day
Mus musculus [11] = experiment: Antiarthritic activity against collagen-II induced rheumatoid arthritis DBA-1 mouse blood CD4+ T cells assessed as reduction in Th17 cells differentiation at 100 mg/kg administered for 14 days on day 60 to day 74 post-immunization by flow cytometry analysis; type: functional, organism-based; settings: T-cell, time 14.0 day
Mus musculus [12] = experiment: Antiarthritic activity against collagen-II induced rheumatoid arthritis DBA-1 mouse spleen CD4+ T cells assessed as reduction in Th1 cells differentiation at 100 mg/kg administered for 14 days on day 60 to day 74 post-immunization by flow cytometry analysis; type: functional, organism-based; settings: T-cell, time 14.0 day
Mus musculus [13] = experiment: Antiarthritic activity against collagen-II induced rheumatoid arthritis DBA-1 mouse spleen CD4+ T cells assessed as reduction in Th17 cells differentiation at 100 mg/kg administered for 14 days on day 60 to day 74 post-immunization by flow cytometry analysis; type: functional, organism-based; settings: T-cell, time 14.0 day
Mus musculus [14] = experiment: Antiarthritic activity against collagen-II induced rheumatoid arthritis DBA-1 mouse blood CD4+ T cells assessed as reduction in T-bet mRNA level at 100 mg/kg administered for 14 days on day 60 to day 74 post-immunization by RT-qPCR assay; type: functional, organism-based; settings: T-cell, time 14.0 day
Mus musculus [15] = experiment: Antiarthritic activity against collagen-II induced rheumatoid arthritis DBA-1 mouse blood CD4+ T cells assessed as reduction in RORgammaT mRNA level at 100 mg/kg administered for 14 days on day 60 to day 74 post-immunization by RT-qPCR assay; type: functional, organism-based; settings: T-cell, time 14.0 day
Mus musculus [16] = experiment: Antiarthritic activity against collagen-II induced rheumatoid arthritis DBA-1 mouse blood CD4+ T cells assessed as increase in GATA3 mRNA level at 100 mg/kg administered for 14 days on day 60 to day 74 post-immunization by RT-qPCR assay; type: functional, organism-based; settings: T-cell, time 14.0 day
Mus musculus [17] = experiment: Antiarthritic activity against collagen-II induced rheumatoid arthritis DBA-1 mouse blood CD4+ T cells assessed as increase in Foxp3 mRNA level at 100 mg/kg administered for 14 days on day 60 to day 74 post-immunization by RT-qPCR assay; type: functional, organism-based; settings: T-cell, time 14.0 day
Mus musculus [18] = experiment: Antiarthritic activity against collagen-II induced rheumatoid arthritis DBA-1 mouse spleen CD4+ T cells assessed as reduction in T-bet mRNA level at 100 mg/kg administered for 14 days on day 60 to day 74 post-immunization by RT-qPCR assay; type: functional, organism-based; settings: T-cell, time 14.0 day
Mus musculus [19] = experiment: Antiarthritic activity against collagen-II induced rheumatoid arthritis DBA-1 mouse spleen CD4+ T cells assessed as reduction in RORgammaT mRNA level at 100 mg/kg administered for 14 days on day 60 to day 74 post-immunization by RT-qPCR assay; type: functional, organism-based; settings: T-cell, time 14.0 day
Mus musculus [20] = experiment: Antiarthritic activity against collagen-II induced rheumatoid arthritis DBA-1 mouse spleen CD4+ T cells assessed as increase in GATA3 mRNA level at 100 mg/kg administered for 14 days on day 60 to day 74 post-immunization by RT-qPCR assay; type: functional, organism-based; settings: T-cell, time 14.0 day
Mus musculus [21] = experiment: Antiarthritic activity against collagen-II induced rheumatoid arthritis DBA-1 mouse spleen CD4+ T cells assessed as increase in Foxp3 mRNA level at 100 mg/kg administered for 14 days on day 60 to day 74 post-immunization by RT-qPCR assay; type: functional, organism-based; settings: T-cell, time 14.0 day
CD4+ve Th [22] = experiment: Antiinflammatory activity against PMA induced DBA-1 mouse spleen CD4+ve Th cells assessed as reduction in TNF-alpha mRNA level at 50 to 100 uM incubated for 24 hrs by RT-qPCR assay; type: functional, cell-based; settings: dose 50-100 µM
CD4+ve Th [23] = experiment: Antiinflammatory activity against PMA induced DBA-1 mouse spleen CD4+ve Th cells assessed as reduction in IL-1beta mRNA level at 50 to 100 uM incubated for 24 hrs by RT-qPCR assay; type: functional, cell-based; settings: dose 50-100 µM
CD4+ve Th [24] = experiment: Antiinflammatory activity against PMA induced DBA-1 mouse spleen CD4+ve Th cells assessed as reduction in IL-6 mRNA level at 50 to 100 uM incubated for 24 hrs by RT-qPCR assay; type: functional, cell-based; settings: dose 50-100 µM
Mus musculus [25] = experiment: Antiarthritic activity against collagen-II induced rheumatoid arthritis DBA-1 mouse model assessed as reduction in synovial hyperplasia at 100 mg/kg administered for 14 days on day 60 to day 74 post-immunization; type: functional, organism-based; settings: time 14.0 day
Mus musculus [26] = experiment: Antiarthritic activity against collagen-II induced rheumatoid arthritis DBA-1 mouse model assessed as reduction in damage of articular cartilage at 100 mg/kg administered for 14 days on day 60 to day 74 post-immunization; type: functional, organism-based; settings: time 14.0 day
Mus musculus [27] = experiment: Antiarthritic activity against collagen-II induced rheumatoid arthritis DBA-1 mouse model assessed as reduction in IL-17 protein level at 100 mg/kg administered for 14 days on day 60 to day 74 post-immunization by immunohistochemistry analysis; type: functional, organism-based; settings: time 14.0 day

Measured: Activity

CC(C)[C@@H]1CC[C@@H](C)CC1=O
active: all assays above

Reference: ChEMBL document CHEMBL5120793, “A Natural Plant Ingredient, Menthone, Regulates T Cell Subtypes and Lowers Pro-inflammatory Cytokines of Rheumatoid Arthritis” (J Nat Prod, 2022)
